From patent publication US5795882A, “Method of treating prostatic diseases using delayed and/or sustained release vitamin D formulations” (Bone Care International, Inc., priority 1996, dated 1998)

What was measured:
[1] = target: T1, prostate VDR (Homo sapiens, UniProt P11473); assay: Prostate cell VDR binding; settings: 0.01-100 nM versus 1 nM 3H-1α,25-(OH)2 D3, 16-20 hrs, 4° C.
T1 sequence (P11473 1-427): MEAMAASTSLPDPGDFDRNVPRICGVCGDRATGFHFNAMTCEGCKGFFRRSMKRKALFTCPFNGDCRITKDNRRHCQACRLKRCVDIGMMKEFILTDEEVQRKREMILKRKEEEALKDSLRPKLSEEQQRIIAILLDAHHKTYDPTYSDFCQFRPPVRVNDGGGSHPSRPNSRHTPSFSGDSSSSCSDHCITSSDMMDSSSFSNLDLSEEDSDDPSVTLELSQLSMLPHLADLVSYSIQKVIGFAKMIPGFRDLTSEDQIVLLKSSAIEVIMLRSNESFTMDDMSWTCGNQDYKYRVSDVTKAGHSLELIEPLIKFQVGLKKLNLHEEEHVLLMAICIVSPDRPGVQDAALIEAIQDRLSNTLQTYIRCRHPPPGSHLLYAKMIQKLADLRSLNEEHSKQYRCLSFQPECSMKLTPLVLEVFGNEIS
Description: Prostate-derived cell lines are cultured to near confluence, washed and harvested by scraping. Cells are washed by centrifugation, and the cell pellet resuspended in a buffered salt solution containing protease inhibitors. The cells are disrupted by sonication while cooling on ice. The supernatant obtained from centrifuging the disrupted cells at 207,000×g for 35 min at 4° C. is assayed for binding. 200 μL of soluble extract, (1-2 mg protein/ml supernatant) is incubated with a 1 nM ^3 H-1α,25-(OH)2 D3 and increasing concentrations of 1α,24-(OH)2 -D2 (0.01-100 nM) for 16-20 hrs at 4° C. Bound and free hormones are separated with hydroxylapatite using standard procedures. Specific binding is calculated by subtracting nonspecific binding obtained in the presence of a 250-fold excess of nonradioactive 1α,25-(OH)2 D3 from the total binding measured.
The procedure of Example 16 is repeated using the active vitamin D analogue 1α,24-dihydroxyvitamin D4, and the specific binding is determined.
The procedure of Example 16 is repeated using the active vitamin D analogue 1α,25-dihydroxyvitamin D4, and the specific binding is determined.

[2] = test system: LNCaP; assay: Inhibition of prostate cell proliferation, LNCaP; type: cell-based, human; settings: 10^-11 to 10^-7 M, 6-7 days
Description: (§1) The cell lines, LNCaP and PC-3, which are derived from human prostate adenocarcinoma, are seeded in six-well tissue culture plates at a density of about 50,000 cells/plate. After the cells have attached and stabilized, about 2-3 days, the medium is replenished with medium containing vehicle or the active vitamin D analogue, 1α,24-(OH)2 D2, at concentrations from 10^-11 to 10^-7 M. Medium containing test analogue or vehicle is replaced every three days. After 6-7 days, the medium is removed, and the cells are rinsed, precipitated with cold 5% trichloroacetic acid, and washed with cold ethanol. The cells are solubilized with 0.2N sodium hydroxide, and the amount of DNA determined by standard procedures.
(§2) The procedure of Example 19 is repeated using the active vitamin D analogue 1α,24-(OH)2 D4, and the cell number is determined.
(§3) The procedure of Example 19 is repeated using the active vitamin D analogue 1α,25-(OH)2 D4, and the cell number is determined.

[3] = test system: PC-3; assay: Inhibition of prostate cell proliferation, PC-3; type: cell-based, human; settings: PC-3, 10^-11 to 10^-7 M, 6-7 days
Description: as §1, §2, §3

[4] = test system: LNCaP; assay: Stimulation of prostate cell differentiation (PSA), LNCaP; type: cell-based, human; settings: 10^-11 to 10^-7 M, 6-7 days
Description: Using the techniques of Skowronski et al., 132 Endocrinology (1993) 1952-1960 and 136 Endocrinology (1995) 20-26, both of which are incorporated herein by reference, cells of the cell line, LNCaP, which is derived from a human metastatic prostate adenocarcinoma and known to express PSA, are seeded in six-well tissue culture plates at a density of about 50,000 cells/plate. After the cells have attached and stabilized, about 2-3 days, the medium is replenished with medium containing vehicle or the active vitamin D analogue, 1α,24-(OH)2 D2, at concentrations from 10^-11 to 10^-7 M. After 6-7 days, the medium is removed and stored at -20° C. for prostate specific antigen (PSA) analysis.
The cells are rinsed, precipitated, and the amount of DNA determined by standard procedures. The cells are resuspended, and the cell number determined. PSA is measured by standard known methods.
The procedure of Example 22 is repeated except the active vitamin D analogue is 1α,24-(OH)2 D4.
The procedure of Example 22 is repeated except the active vitamin D analogue is 1α,25-(OH)2 D4.

[5] = Comparison of oral bioavailability in rachitic rats (Example 5); type: in vivo, rat; settings: rat, in vivo, 0.0015 mg/kg, 12 h after single oral dose 0.255 μg (approximately 1.5 μg/kg) in fractionated coconut oil, n=6, ± SD, ** p < 0.01 relative to 1α,25(OH)2 D3, read-out: Serum 1α,25-(OH)2 D3
Description: Three-week-old rats were maintained on a vitamin D-deficient diet containing normal levels of calcium and phosphorus for 3-6 weeks until marked hypocalcemia was observed. […] A control group received only the vehicle. For all treatment groups, blood was obtained at 12 hours postdosing, and analyzed for serum levels of the vitamin form.

[6] = test system: leukemia cells; settings: by inducing differentiation to nonmalignant macrophages; cited from earlier work
[7] = in vivo; cited from earlier work
[8] = test system: malignant cells; settings: cited from earlier work
[9] = test system: prostate cancer cell lines; settings: cited from earlier work
[10] = In vitro thermal conversion of 1α-hydroxyprevitamin D to 1α-hydroxyvitamin D; type: physicochemical; settings: in ethanol, 37° C.
Description: A series of experiments were conducted which address the in vitro conversion of previtamin to vitamin for three 1α-hydroxyprevitamin D's: 1α-hydroxyprevitamin D2, 1α,24-dihydroxyprevitamin D2 and 1α-hydroxyprevitamin D3. Each 1α-hydroxyprevitamin D was dissolved in ethanol, incubated at 37° C. in a water bath, and samples taken at two-hour intervals. An analytical HPLC separation was performed on each sample to quantify the thermal conversion of the previtamin to the vitamin form. The data collected were normalized to account for the presence of any vitamin form in the initial formulation (≤10%). The results are presented in FIG. 1 which is a plot of % previtamin versus time in hours. Linear regression lines were generated for each previtamin.

[11] = test system: luteinizing hormone (LH); settings: cited from earlier work
[12] = target: T2, Vitamin D Receptor (Homo sapiens, UniProt P11473); assay: VDR competitive binding assay (Examples 6-8); settings: in words; Examples 7 and 8 versus the vitamin form
T2 sequence (P11473 1-427): T1 sequence (P11473 1-427)

[13] = Oral bioavailability of 1α,24-(OH)2 preD2 in normal rats (Example 2); type: in vivo, rat
Description: In this experiment, normal rats maintained on a normal diet were assigned randomly to treatment and control groups. The rats were orally administered single doses of 1α,24-(OH)2 preD2 in a fractionated coconut oil (FCO) (1.5 μg, which was approximately 7.5 μg/kg). The control group received only the vehicle. For both groups, blood was obtained at 6 hours postdosing and analyzed for serum levels of the vitamin form, 1α,24-dihydroxyvitamin D2.

[14] = test system: advanced androgen-independent prostate cancer; assay: Clinical study in advanced androgen-independent prostate cancer; type: in vivo, human; settings: for progression of metastatic disease (CAT scans, x-rays, bone scans): two years
From the text: Patients with advanced androgen-independent prostate cancer participate in an open-labeled study of 1α,24-(OH)2 preD2. […] On admission to the study , patients begin a course of therapy with oral 1α,24-(OH)2 preD2 lasting 26 weeks, while discontinuing any previous use of calcium supplements, vitamin D supplements, and vitamin D hormone replacement therapies. During treatment, the patients are monitored at regular intervals for: (1) hypercalcemia, hyperphosphatemia, hypercalciuria, hyperphosphaturia and other toxicity; (2) evidence of changes in the progression of metastatic disease; and (3) compliance with the prescribed test drug dosage.
The study is conducted in two phases. During the first phase, the maximal tolerated dosage (MTD) of daily oral 1α,24-(OH)2 preD2 is determined by administering progressively higher dosages to successive groups of patients. All doses are administered in the morning before breakfast. The first group of patients is treated with 25 μg of 1α,24-(OH)2 preD2. Subsequent groups of patients are treated with 50, 75 and 100 μg/day. Dosing is continued uninterrupted for the duration of the study unless serum calcium exceeds 11.6 mg/dL or other toxicity of grade 3 or 4 is observed, in which case dosing is held in abeyance until resolution of the observed toxic effect(s) and then resumed at a level which has been decreased by 10.0 μg.
During the second phase, patients are treated with 1α,24-(OH)2 preD2 for 24 months at 0.5 and 1.0 times the MTD.
The study of Example 25 is repeated for the active vitamin D compound, 1α,25-(OH)2 D2 in DSR form.

## C=C1/C(=C\C=C2/CCC[C@]3(C)[C@@H]([C@H](C)CC[C@H](C)C(C)(C)O)CC[C@@H]23)C[C@@H](O)C[C@@H]1O [1α,25-(OH)2 D4, 1α,25-dihydroxyvitamin D4]
[1]
  affinity for prostate VDR: strong affinity for prostate VDR
[2]
  number of cells versus control cultures: significantly fewer cells than the control cultures
[3]
  number of cells versus control cultures: significantly fewer cells than the control cultures
[4]
  PSA (mass of PSA/cell) versus control cultures: significantly more PSA than control cultures

## C=C1/C(=C\C=C2/CCC[C@]3(C)[C@@H]([C@H](C)CCCC(C)(C)O)CC[C@@H]23)C[C@@H](O)C[C@@H]1O [1α,25-(OH)2 D3, 1α,25-dihydroxyvitamin D3]
[5]
  concentration at 12 h: 0.327 ± 0.192 ng/mL
[6]
  antileukemic activity: potent antileukemic activity
[7]
  risk of hypercalcemia limiting clinical use as anti-cancer agent: precluded, or severely limited, by the risk of hypercalcemia
[8]
  growth and differentiation of malignant cells: regulate growth and promote the differentiation of many malignant cells
[9]
  antiproliferative and differentiating actions: Antiproliferative and differentiating actions

## CC1=C(/C=C\C2=CCC[C@]3(C)[C@@H]([C@H](C)/C=C/[C@H](C)C(C)C)CC[C@@H]23)C[C@@H](O)C[C@@H]1O [1α-(OH)preD2, 1α-hydroxyprevitamin D2]
[10]
  half-life: 12.9 h

## C=C1/C(=C\C=C2/CCC[C@]3(C)[C@@H]([C@H](C)CCC(C)(O)C(C)C)CC[C@@H]23)C[C@@H](O)C[C@@H]1O (stereo partly drawn) [1α,24-(OH)2 D4, 1α,24-dihydroxyvitamin D4]
[1]
  affinity for prostate VDR: strong affinity for prostate VDR
[2]
  number of cells versus control cultures: significantly fewer cells than the control cultures
[3]
  number of cells versus control cultures: significantly fewer cells than the control cultures
[4]
  PSA (mass of PSA/cell) versus control cultures: significantly more PSA than control cultures

## CC/C(=C(/CC)c1ccc(O)cc1)c1ccc(O)cc1 [diethylstilbestrol]
[11]; in vivo
  cardiovascular profile: poor cardiovascular profile
  inhibition of the release of luteinizing hormone from the pituitary gland: potent inhibitors of the release from the pituitary gland of luteinizing hormone
[11]; men
  dose achieving maximum suppression of plasma testosterone: 3 mg/day

## C=C1/C(=C\C=C2/CCC[C@]3(C)[C@@H]([C@H](C)CCCC(C)C)CC[C@@H]23)C[C@@H](O)C[C@@H]1O [1α-(OH)D3, 1α-hydroxyvitamin D3]
[6]
  antileukemic activity: potent antileukemic activity

## CC1=C(/C=C\C2=CCC[C@]3(C)[C@@H]([C@H](C)CCC(C)(O)C(C)C)CC[C@@H]23)C[C@@H](O)C[C@@H]1O (stereo partly drawn) [1α,24-(OH)2 preD4, 1α,24-dihydroxyprevitamin D4]
[12]
  VDR binding affinity: substantially less affinity for the receptor than does its vitamin form

## C=C1/C(=C\C=C2/CCC[C@]3(C)[C@@H]([C@H](C)/C=C/C(C)(O)C(C)C)CC[C@@H]23)C[C@@H](O)C[C@@H]1O (stereo partly drawn) [1α,24-(OH)2 D2, 1α,24-dihydroxyvitamin D2]
[1]
  affinity for prostate VDR: strong affinity for prostate VDR
[2]
  number of cells versus control cultures: significantly fewer cells than the control cultures
[3]
  number of cells versus control cultures: significantly fewer cells than the control cultures
[4]
  PSA (mass of PSA/cell) versus control cultures: significantly more PSA than control cultures

## CC1=C(/C=C\C2=CCC[C@]3(C)[C@@H]([C@H](C)/C=C/C(C)(O)C(C)C)CC[C@@H]23)C[C@@H](O)C[C@@H]1O (stereo partly drawn) [1α,24-(OH)2 preD2, 1α,24-dihydroxyprevitamin D2]
[10]
  half-life: 12.2 h
[13]
  oral bioavailability (increased circulating 1α,24-(OH)2 D2): bioavailable
[12]
  VDR binding affinity: substantially less affinity for the receptor than does its vitamin form
[14]; patients treated with the MTD for at least six months
  bone pain associated with metastatic disease: significantly diminished
[14]; patients, daily oral
  circulating levels of 1α,25-(OH)2 D3: suppressed, often to undetectable levels
  levels of circulating 1α,24-(OH)2 D2 versus dosage: increase proportionately with the dosage administered
  serum and urine calcium: elevated in a dose responsive manner
[14]; patients, daily oral, first phase
  maximal tolerated dosage (MTD): above 20.0 μg/day
[14]; higher dosage (1.0 times the MTD)
  progression of metastatic disease (CAT scans, x-rays, bone scans): partial or complete remission
[14]; lower dosage (0.5 times the MTD)
  progression of metastatic disease (CAT scans, x-rays, bone scans): stable disease or partial remission
